Experiment [1] has as its system LPS-stimulated mouse macrophage RAW264.7 cells (小鼠巨噬细胞RAW264.7细胞). To be noted: LPS-stimulated RAW264.7; earlier study of the applicant's group; read-out: IC50 (inhibition of NO production); cited from earlier work.
The subject of experiment [2] is LPS-stimulated mouse macrophage RAW264.7 cells, NO production (小鼠巨噬细胞RAW264.7细胞, 一氧化氮(NO)生成). In words: Griess assay of NO production in LPS-stimulated RAW264.7 cells. In kind it is cell-based. (Nitrite, measured by Griess reagent, commonly stands in for NO production.)
For experiment [3], the target named is MAFF protein (MAFF蛋白) (Homo sapiens, UniProt Q9ULX9). As to the kind of experiment: Microscale thermophoresis (MST). Type of experiment: binding. (Microscale thermophoresis detects binding through changes in fluorescence in a small temperature gradient.)
The target of experiment [4] is T1, MAFF protein (MAFF蛋白) (Mus musculus, UniProt O54791).
T1 construct: endogenous in cells; host or cells: RAW264.7
As to the kind of experiment: CETSA in RAW264.7 cells. In kind it is cell-based. To be noted: 40 μM, 4 h; 64-72 ℃.

Another experiment concerns the target T2, MAFF (Mus musculus, UniProt O54791).
T2 construct: endogenous in cells; host or cells: RAW264.7
In words: DARTS in RAW264.7 lysate. In kind it is binding. As to conditions: 10, 20 and 40 μM; Pronase 1:1000, 37 ℃ 15 min.

This is an account of results in CN116559458A, “基于protac蛋白靶向降解技术的活性天然产物靶点鉴定方法及protac化合物” (Shenyang Pharmaceutical University, priority 2022, dated 2023).

Chain of MAFF protein (MAFF蛋白) (Homo sapiens, UniProt Q9ULX9) (Q9ULX9 whole entry, species assumed): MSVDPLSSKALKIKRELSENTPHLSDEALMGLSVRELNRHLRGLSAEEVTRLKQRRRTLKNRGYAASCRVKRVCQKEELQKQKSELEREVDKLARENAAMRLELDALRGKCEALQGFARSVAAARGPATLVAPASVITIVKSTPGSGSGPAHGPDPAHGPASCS
T2 sequence (O54791 whole entry): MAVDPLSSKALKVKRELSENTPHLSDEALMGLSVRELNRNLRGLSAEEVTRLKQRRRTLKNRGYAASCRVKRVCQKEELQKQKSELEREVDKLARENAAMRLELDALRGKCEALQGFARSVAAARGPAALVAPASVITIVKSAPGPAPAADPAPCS
T1 sequence (O54791 whole entry): as above

`C=C1CC[C@H]2[C@@H](/C=C(\C)C(=O)[C@@]3(OC(C)=O)C[C@H](C)[C@H](OC(=O)/C=C/c4ccccc4)[C@@H]3[C@H]1O)C2(C)C` [2S,3S,4S,5R,9S,11R,15R)-15-acetoxy-3-cinnamoyloxy-5-hydroxy-14-oxolathyra-6(17),12E-diene]: in experiment [1], the half-inhibitory concentration (IC50) (in general, the concentration at which inhibition is half-maximal) was 3 ± 1.1 µM.
As for `C=C1CC[C@H]2[C@@H](/C=C(\C)C(=O)[C@@]3(O)C[C@H](C)[C@H](O)[C@@H]3[C@H]1O)C2(C)C` [Lathyrol], the IC50 in experiment [2] (Mus musculus, RAW264.7, read-out: IC50 (inhibition of NO production)) stood at 11.1 ± 1.14 µM. Further, the “inhibition of LPS-stimulated NO production (in words)” value in experiment [2] (RAW264.7, compound 3 h, then LPS 1 μg/mL 24 h) is recorded as “良好的抑制作用”. For the same compound, the Kd – broadly, the constant that tells how readily two partners part at equilibrium – on MAFF protein (MAFF蛋白) [3] was determined as 20.9 ± 2.34 µM. For the same compound, the “thermal stability of MAFF protein” value on MAFF protein (MAFF蛋白) [4] is “提高了MAFF蛋白的热稳定性”. In addition, on MAFF, the “degradation of MAFF by Pronase” value was “降解程度显著降低”.
